Results on 25 compounds are retold here after patent US20220062233A1 (The Board of Trustees of the Leland Stanford Junior …, priority 2018, published 2022).

A value given as a limit tells only on which side of the number the result lay.

The target of data set [1] is T1, interaction between Supt4h and NGN (subunit of Supt5h) (Homo sapiens, UniProt O00267+P63272).
T1 construct: expressed in transfected cells
Nature of the data set: Split Gaussia luciferase complementation assay (M2-8 Luciferase). The settings on record: M2-8 cells. Format: cell-based. Here is the method:
A. Split Gaussia Luciferase Complementation Assay […]
i: pNBR-X1-Supt4-Gluc1 and pNEBR-X1-NGN-Gluc2
The HA-Supt4h and Flag-NGN fragments are amplified by PCR using the plasmid pHA-Supt4h-YC and pFlag-NGN-YN and sub-cloned individually into pcDNA3.1-Gluc1 and pcDNA3.1-Gluc2 (described in “A highly sensitive protein-protein interaction assay based on Gaussia luciferase” published at Nat Methods. 2006 December; 3(12):977-9. Epub 2006 Nov. 12). Then HA-Supt4h-Gluc1 and Flag-NGN-Gluc2 are amplified by PCR and inserted to pNEBR-X1-Hygro (New England BioLabs), which contain RheoSwitch responsive element under the control of RheoSwitch ligand. […]
ii: pNEBR-X1-Supt4h-G1-NGN-G2
PCR products containing the sequence from 5XRE to polyA in pNEBR-X1-NGN-G2 are inserted to pNEBR-X1-Supt4h-G1 at Pcil site to generate Supt4h-G1 and NGN-G2 bidirectional under their own RheoSwitch responsive element and polyA in the same plasmid. […]
b. Stable Cloned Cell Line i: 293-R1 is a cloned cell line which is engineered to constitutively express RSL1 receptor/activator by transfecting HEK 293 cells with pNEBR-R1 plasmid (New England BioLabs) and selected with blasticidin. […]
ii: M2-8 is a cloned 293-R1 cell which can inducibly express pNEBR-X1-Supt4h-G1-NGN-G2 by addition of RSL1. Two point mutations ([…] and M110I) are introduced to the GL1 and GL2 for better stability according to “A high-throughput cell-based Gaussia luciferase reporter assay for identifying modulators of fibulin-3 secretion” published in J Biomol Screen. 2013 July; 18(6):647-58. The cell line is selected by hygromycin. […]
c. Cell Culture and Transfection Condition
All the HEK-293 cells and derivative clones are maintained in DMEM containing 10% FBS plus corresponding antibiotics (250 μg/ml hygromycin B, 10 μg/ml blasticidin or both) at 37° C., 5% CO2. All the transfections are done by using Lipofectamine 2000 (Invitrogen) according to the manufacturer's instructions. […]
d. Bioluminescence Assay from Cell Lysates
Plasmids harboring the Gluc1 and Gluc2 are co-transfected in a 1:1 ratio into 293-R1 cells plated on tissue culture treated 24-well plates using Lipofectamine 2000 according to the manufacturer's instructions. For stable M2-8 cells, the cells are directly plated into 96-well or 384-well white plates. Twenty-four hours later, RheoSwitch ligand with or without test compound is added to the cells for induction/drug treatment. After 24 hr, the cells are washed with PBS and the plate was stored at −20° C. overnight. Lysis buffer [30 mM Tris-HCl (pH 8.0) 5 mM NaCl, 0.1% Triton X-100] with 10 μg/ml native coelenterazine (Nanolight Technology) is then added to the cells at room temperature for one hour in the dark. After shaking for about 1 min, 40 μl of cell lysate are transferred to a white 96-well plate. For M2-8 in white micro plate, no transfer is needed. Signal intensities (integrated 100 ms) were read on Tecan Infinite M200 or M1000.
The split Gaussia luciferase complementation assay measures the interaction between Sup4h and NGN. NGN is the subunit of Supt5h that binds to Supt4h.

Data set [2] relates to M2-8 cells. Nature of the data set: M2-8 Cell viability Assay. The class given is cell-based. The settings on record: at the concentration of 1000 nM.

On to `CC(C)(O)c1ccc(C(CO)N[C@@H]2CCCc3c2[nH]c2ccc(Br)cc32)cc1` (mixture of isomers) [Compound 51, 2-(4-(1-(((R)-6-bromo-2,3,4,9-tetrahydro-1H-carbazol-1-yl)amino)-2-hydroxyethyl)phenyl) propan-2-ol], for which the IC50 (as a rule, the concentration that inhibits the measured activity by half) in data set [1] was 301 to 1000 nM. In addition, the “M2-8 Cell viability” value in data set [2] is “+ (cell viability is greater than 50% at the concentration of 1000 nM)”.

As for `CC(C)(O)c1ccc(C(CF)N[C@@H]2CCCc3c2[nH]c2ccc(Br)cc32)cc1` (single isomer, unassigned) [Compound 54], in data set [1], the IC50 was no more than 100 nM. In data set [2], the “M2-8 Cell viability” value is recorded as “+ (cell viability is greater than 50% at the concentration of 1000 nM)”.

`CC(C)(O)c1ccc(C(CF)N[C@@H]2CCCc3c2[nH]c2ccc(Br)cc32)cc1` (single isomer, unassigned) [Compound 55]: the IC50 in data set [1] was no more than 100 nM. In data set [2], the “M2-8 Cell viability” value is “+ (cell viability is greater than 50% at the concentration of 1000 nM)”.

As to `c1ccc(CN[C@@H]2CCCc3c2[nH]c2ccccc32)cc1` [Compound 4, (R)—N-benzyl-2,3,4,9-tetrahydro-1H-carbazol-1-amine], the IC50 in data set [1] is greater than 1000 nM. For the same compound, the “M2-8 Cell viability” value in data set [2] is given as “+ (cell viability is greater than 50% at the concentration of 1000 nM)”.

`CCc1ccc2[nH]c3c(c2c1)CCC[C@H]3NCc1ccccc1` [Compound 6] returned a concentration for half-maximal inhibition (IC50) in data set [1] of 301 to 1000 nM. The “M2-8 Cell viability” value in data set [2] is “+ (cell viability is greater than 50% at the concentration of 1000 nM)”.

Regarding `OCC#Cc1ccc2[nH]c3c(c2c1)CCC[C@H]3NCc1ccccc1` [Compound 7, (R)-3-(1-(benzylamino)-2,3,4,9-tetrahydro-1H-carbazol-6-yl)prop-2-yn-1-ol], the IC50 in data set [1] is 301 to 1000 nM. Further, the “M2-8 Cell viability” value in data set [2] is listed as “+ (cell viability is greater than 50% at the concentration of 1000 nM)”.

Turning to `c1ccc(CN[C@@H]2CCCc3c2[nH]c2ccc(-c4ccccc4)cc32)cc1` [Compound 8, (R)—N-benzyl-6-phenyl-2,3,4,9-tetrahydro-1H-carbazol-1-amine], the IC50 in data set [1] was greater than 1000 nM. For the same compound, the “M2-8 Cell viability” value in data set [2] is recorded as “+ (cell viability is greater than 50% at the concentration of 1000 nM)”.

`Oc1cccc(-c2ccc3[nH]c4c(c3c2)CCC[C@H]4NCc2ccccc2)c1` [Compound 9, (R)-3-(1-(benzylamino)-2,3,4,9-tetrahydro-1H-carbazol-6-yl)phenol] yielded an IC50 in data set [1] of 301 to 1000 nM. In addition, the “M2-8 Cell viability” value in data set [2] is given as “+ (cell viability is greater than 50% at the concentration of 1000 nM)”.

In turn, `Oc1ccc(-c2ccc3[nH]c4c(c3c2)CCC[C@H]4NCc2ccccc2)cc1` [Compound 10, (R)-4-(1-(benzylamino)-2,3,4,9-tetrahydro-1H-carbazol-6-yl)phenol] yielded an IC50 in data set [1] greater than 1000 nM. Further, the “M2-8 Cell viability” value in data set [2] was “+ (cell viability is greater than 50% at the concentration of 1000 nM)”.

For the compound `c1ccc(CN[C@@H]2CCCc3c2[nH]c2ccc(-c4cn[nH]c4)cc32)cc1` [Compound 11, (R)—N-benzyl-6-(1H-pyrazol-4-yl)-2,3,4,9-tetrahydro-1H-carbazol-1-amine], the IC50 in data set [1] was greater than 1000 nM. Besides, in data set [2], the “M2-8 Cell viability” value is recorded as “+ (cell viability is greater than 50% at the concentration of 1000 nM)”.

In turn, `OCCc1ccc2[nH]c3c(c2c1)CCC[C@H]3NCc1ccccc1` [Compound 12, (R)-2-(1-(benzylamino)-2,3,4,9-tetrahydro-1H-carbazol-6-yl)ethan-1-ol] yielded a 50% inhibitory concentration (IC50) in data set [1] greater than 1000 nM. The “M2-8 Cell viability” value in data set [2] is given as “+ (cell viability is greater than 50% at the concentration of 1000 nM)”.

In the case of `N[C@@H]1CCCc2c1[nH]c1ccc(Br)cc21` [Compound 15], in data set [1], the half-inhibitory concentration (IC50) was greater than 1000 nM. Also, in data set [2], the “M2-8 Cell viability” value was “+ (cell viability is greater than 50% at the concentration of 1000 nM)”.

The compound `CC1(C)CCC(NCc2ccccc2)c2[nH]c3ccc(Br)cc3c21` (centres unmarked) [Compound 16] registered an IC50 in data set [1] greater than 1000 nM. Besides, in data set [2], the “M2-8 Cell viability” value is “+ (cell viability is greater than 50% at the concentration of 1000 nM)”.

`CC1(C)Cc2c([nH]c3ccc(Br)cc23)[C@H](NCc2ccccc2)C1` [Compound 17]: in data set [1], the IC50 is greater than 1000 nM. The “M2-8 Cell viability” value in data set [2] is “+ (cell viability is greater than 50% at the concentration of 1000 nM)”.

Take `Cn1c2c(c3cc(Br)ccc31)CCCC2NCc1ccccc1` (centres unmarked) [Compound 18]: in data set [1], the IC50 is greater than 1000 nM. Also, in data set [2], the “M2-8 Cell viability” value is on record as “+ (cell viability is greater than 50% at the concentration of 1000 nM)”.

For the compound `Brc1ccc2[nH]c3c(c2c1)CCC[C@H]3NCc1ccc2ccccc2c1` [Compound 20, (R)-6-bromo-N-(naphthalen-2-ylmethyl)-2,3,4,9-tetrahydro-1H-carbazol-1-amine], the IC50 in data set [1] fell in the range of 101 to 300 nM. Moreover, in data set [2], the “M2-8 Cell viability” value was “+ (cell viability is greater than 50% at the concentration of 1000 nM)”.

For `Brc1ccc2[nH]c3c(c2c1)CCC[C@H]3NCc1ccc(N2CCCC2)cc1` [Compound 22, (R)-6-bromo-N-(4-(pyrrolidin-1-yl)benzyl)-2,3,4,9-tetrahydro-1H-carbazol-1-amine], the IC50 in data set [1] lay in the range of 101 to 300 nM. For the same compound, the “M2-8 Cell viability” value in data set [2] is listed as “+ (cell viability is greater than 50% at the concentration of 1000 nM)”.

For `COc1ccccc1CN[C@@H]1CCCc2c1[nH]c1ccc(Br)cc21` [Compound 23, (R)-6-bromo-N-(2-methoxybenzyl)-2,3,4,9-tetrahydro-1H-carbazol-1-amine], in data set [1], the IC50 was 301 to 1000 nM. In data set [2], the “M2-8 Cell viability” value was “+ (cell viability is greater than 50% at the concentration of 1000 nM)”.

In data set [1], `CN(C)c1ccc(CN[C@@H]2CCCc3c2[nH]c2ccc(Br)cc32)cc1` [Compound 29, (R)-6-bromo-N-(4-(dimethylamino)benzyl)-2,3,4,9-tetrahydro-1H-carbazol-1-amine] had an IC50 of 101 to 300 nM. Further, the “M2-8 Cell viability” value in data set [2] is “+ (cell viability is greater than 50% at the concentration of 1000 nM)”.

With `O=[N+]([O-])c1ccc(CN[C@@H]2CCCc3c2[nH]c2ccc(Br)cc32)cc1` [Compound 30, (R)-6-bromo-N-(4-nitrobenzyl)-2,3,4,9-tetrahydro-1H-carbazol-1-amine], the IC50 in data set [1] lay within 101 to 300 nM. Further, in data set [2], the “M2-8 Cell viability” value is “+ (cell viability is greater than 50% at the concentration of 1000 nM)”.

In turn, `C(#CC1CC1)c1ccc2[nH]c3c(c2c1)CCC[C@H]3NCc1ccccc1` [Compound 34, (R)—N-benzyl-6-(cyclopropylethynyl)-2,3,4,9-tetrahydro-1H-carbazol-1-amine] displayed an IC50 in data set [1] greater than 1000 nM. In data set [2], the “M2-8 Cell viability” value was “+ (cell viability is greater than 50% at the concentration of 1000 nM)”.

As to `Cn1cncc1CN[C@@H]1CCCc2c1[nH]c1ccc(Br)cc21` [Compound 35, (R)-6-bromo-N-((1-methyl-1H-imidazol-5-yl)methyl)-2,3,4,9-tetrahydro-1H-carbazol-1-amine], the IC50 in data set [1] is 301 to 1000 nM. Further, in data set [2], the “M2-8 Cell viability” value is on record as “+ (cell viability is greater than 50% at the concentration of 1000 nM)”.

As to `Brc1ccc2[nH]c3c(c2c1)CCC[C@H]3NCc1ccc(I)cc1` [Compound 40, (R)-6-bromo-N-(4-iodobenzyl)-2,3,4,9-tetrahydro-1H-carbazol-1-amine], the IC50 in data set [1] was in the range of 101 to 300 nM. Further, the “M2-8 Cell viability” value in data set [2] is listed as “+ (cell viability is greater than 50% at the concentration of 1000 nM)”.

In data set [1], `CC(=O)c1ccc2[nH]c3c(c2c1)CCC[C@H]3NCc1ccccc1` [Compound 46, (R)-1-(1-(benzylamino)-2,3,4,9-tetrahydro-1H-carbazol-6-yl)ethan-1-one] displayed an IC50 of 301 to 1000 nM. Further, the “M2-8 Cell viability” value in data set [2] was “+ (cell viability is greater than 50% at the concentration of 1000 nM)”.

`C=C(C)c1ccc(CN[C@@H]2CCCc3c2[nH]c2ccc(Br)cc32)cc1` [Compound 47, (R)-6-bromo-N-(4-(prop-1-en-2-yl)benzyl)-2,3,4,9-tetrahydro-1H-carbazol-1-amine] displayed an IC50 in data set [1] of 101 to 300 nM. For the same compound, the “M2-8 Cell viability” value in data set [2] is “+ (cell viability is greater than 50% at the concentration of 1000 nM)”.
